We go through 35 compounds from US20240150368A1, “ULK INHIBITORS AND METHODS OF USE THEREOF” (Deciphera Pharmaceuticals, LLC, priority 2022, published 2024).

One test deals with T1, ULK1 kinase (Homo sapiens, UniProt O75385, E37A/K38A).
T1 construct: (residues 1-283; ID NO: 1); purchased Beryllium
T1 sequence (O75385 1-283 E37A/K38A): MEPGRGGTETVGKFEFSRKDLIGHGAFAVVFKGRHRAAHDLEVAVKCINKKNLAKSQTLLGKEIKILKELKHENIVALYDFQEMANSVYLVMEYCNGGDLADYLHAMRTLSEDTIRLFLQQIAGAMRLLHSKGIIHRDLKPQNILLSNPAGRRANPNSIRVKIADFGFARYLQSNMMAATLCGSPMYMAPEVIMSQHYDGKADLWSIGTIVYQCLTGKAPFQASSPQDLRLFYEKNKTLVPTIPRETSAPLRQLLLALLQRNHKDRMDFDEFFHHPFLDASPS
The test can be described thus: Biochemical assay for ULK1 (coupled pyruvate kinase/lactate dehydrogenase assay). The conditions noted are these: 1 mM ATP, 0.1 nM ULK1; read-out: ULK1 (inhibition of biochemical activity), IC50. An outline of the steps: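 IC50 values were fitted to percent inhibition, normalised with no-compound and known-inhibitor controls, using rates from 2–3 h of a 6 h read at 30 °C. ADP was coupled through pyruvate kinase/lactate dehydrogenase to NADH loss at 340 nm.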

Test [1] has as its system ULK kinase substrate ATG13 (pS318-ATG13) in MiaPaCa-2 cells. The test can be described thus: pATG13 levels of mutant KRas MiaPaCa-2 cells after treatment with ULK inhibitors in combination with trametinib (ELISA). In kind it is cell-based, human. As for the experimental part: pATG13 Levels of Mutant KRas MiaPaCa-2 Cells after Treatment with ULK Inhibitors in Combination with Trametinib
MiaPaCa-2 human pancreatic cancer cells (10000 cells/well) were added to a 384-well tissue-culture treated plate in 50 μL of pre-warmed DMEM medium supplemented with 10% characterized fetal bovine serum (Invitrogen, Carlsbad, CA), 100 units/mL penicillin G, 100 μg/mL streptomycin, and 2.5% Horse Serum and allowed to grow overnight at 37° C., 5% CO2, and 95% humidity. The following day, 10 μL of media containing trametinib or DMSO as a control was added to wells. The final concentration of trametinib in wells was 250 nM. A dose response of a test compound (0.6 μL per well) was added. DMSO (0.6 μL) was added to control wells. The plate was briefly shaken to mix wells and then incubated at 37° C. overnight. The next day, the media was aspirated and cells were washed with Dulbecco's Phosphate Buffered Saline (Gibco). Cells were lysed using MPER lysis buffer (Pierce, Rockford, IL) containing Halt Phosphatase and Protease Inhibitors (Pierce, Rockford, IL) and Phosphatase inhibitor cocktail 2 (Sigma, St. Louis, MO) at 4° C. for 10 minutes with shaking.
Cellular levels of phospho-Serine 318 ATG13 (pATG13) were measured via an ELISA method. Total ATG13 Antibody (Cell Signaling Cat #13273) was used to coat the wells. The plate was incubated at 4° C. overnight and washed with ELISA wash buffer (Biolegend Cat #421601). The wells were then blocked with assay diluent (Biolegend Cat #421203) for 1 h at rt. Plate wells were washed with ELISA wash buffer. Cell lysate was added to wells and incubated at rt for 2 h. Plate wells were washed with ELISA wash buffer. Biotinylated pS318-ATG13 antibody (Rockland Immunochemicals Cat #600-401-C49) was diluted in assay diluent and added to each well and incubated at rt for 1 h. Plate wells were washed with ELISA wash buffer. Streptavidin linked to horseradish peroxidase (Thermo Fisher Cat #21140) was diluted in assay diluent and added to each well and incubated at rt for 1 h. Plate wells were washed with ELISA wash buffer. High sensitivity TMB substrate (Biolegend Cat #421101) was added to each well and incubated at rt for 20 min. The reaction was stopped with 2.0N sulfuric acid. The plate was analyzed at on a plate reader measuring absorbance at 450 nm and 540 nm (background). Signal was calculated by first subtracting the background absorbance at 540 nm from the absorbance at 450 nm for each well. Next, the background corrected absorbance at 450 nm from blank wells was subtracted from test wells. Data was compared to control wells to determine % ATG13 phosphorylation. GraphPad Prism was used to calculate IC50 values.
In general terms: An ELISA detects its analyte on a solid surface through an enzyme-linked reagent.

As usually defined, the IC50 is the midpoint of a concentration-inhibition curve. Turning to `CC/C(Nc1cnn(C2CCN(C(C)C)CC2)c1)=C1/C(=O)Nc2ccc(C(=O)NCC3CCC(C4CC4)O3)cc21` (stereo not shown) [Example 3, (Z)—N-((5-cyclopropyltetrahydrofuran-2-yl)methyl)-3-(1-((1-(1-isopropylpiperidin-4-yl)-1H-pyrazol-4-yl)amino)propylidene)-2-oxoindoline-5-carboxamide], the figures for the IC50 (on ULK1 kinase; in test [1]) were 10 to 100 nM and 100 to 300 nM, respectively.

Consider `CC/C(Nc1cnn(C(C)C)c1)=C1/C(=O)Nc2ccc(C(=O)NCC(F)(F)F)cc21` [Example 4, (Z)-3-(1-((1-isopropyl-1H-pyrazol-4-yl)amino)propylidene)-2-oxo-N-(2,2,2-trifluoroethyl)indoline-5-carboxamide], for which the IC50 at ULK1 kinase was no more than 10 nM; in test [1], no more than 100 nM.

Take `CC/C(Nc1cnn(C(C)C)c1)=C1/C(=O)Nc2ccc(C(=O)NCC3(C)COC3)cc21` [Example 5, (Z)-3-(1-((1-isopropyl-1H-pyrazol-4-yl)amino)propylidene)-N-((3-methyloxetan-3-yl)methyl)-2-oxoindoline-5-carboxamide]: the IC50 on ULK1 kinase is 10 to 100 nM; in test [1], 100 to 300 nM.

`CC/C(Nc1cnn(C2CCN(C(C)C)CC2)c1)=C1/C(=O)Nc2ccc(C(=O)N(C)CC(F)(F)F)cc21` [Example 7]: the IC50 is no more than 10 nM at ULK1 kinase and no more than 100 nM in test [1].

As for `CC/C(Nc1cnn(C2CCN(C(C)C)CC2)c1)=C1/C(=O)Nc2ccc(C(=O)NCC(F)(F)F)cc21` [Example 8], the IC50 on ULK1 kinase is no more than 10 nM; in test [1], no more than 100 nM.

For the compound `CC/C(Nc1cnn(C2CCN(C(C)C)CC2)c1)=C1/C(=O)Nc2ccc(C(=O)N(C)CCOC)cc21` [Example 9], the IC50 at ULK1 kinase lay within 10 to 100 nM; in test [1] it was 100 to 300 nM.

For the compound `CC/C(Nc1cnn(C2CCN(C(C)C)CC2)c1)=C1/C(=O)Nc2ccc(C(=O)NCC(C)C)cc21` [Example 16], the IC50 at ULK1 kinase was no more than 10 nM; in test [1], no more than 100 nM.

`CC/C(Nc1cnn(C2CCN(C(C)C)CC2)c1)=C1/C(=O)Nc2ccc(C(=O)NCC3CCO3)cc21` (stereo not shown) [Example 21]: the values for the IC50 (on ULK1 kinase; in test [1]) were 10 to 100 nM and no more than 100 nM, respectively.

As for `CC/C(Nc1cnn(C2CCN(C(C)C)CC2)c1)=C1/C(=O)Nc2ccc(C(=O)NCCC#N)cc21` [Example 26], the IC50 is no more than 10 nM at ULK1 kinase and no more than 100 nM in test [1].

As for `CC/C(Nc1cnn(C2CCN(C(C)C)CC2)c1)=C1/C(=O)Nc2ccc(C(=O)NCC(C)(C)OC)cc21` [Example 27], the IC50 is 10 to 100 nM on ULK1 kinase and no more than 100 nM in test [1].

For the compound `CC/C(Nc1cnn(C2CCN(C(C)C)CC2)c1)=C1/C(=O)Nc2ccc(C(=O)NCC(C)(C)O)cc21` [Example 28], the figures for the IC50 (on ULK1 kinase; in test [1]) were 10 to 100 nM and no more than 100 nM, respectively.

Take `CC/C(Nc1cnn(C2CCN(C(C)C)CC2)c1)=C1/C(=O)Nc2ccc(C(=O)NC3CC(F)(F)C3)cc21` [Example 29]: the half-maximal inhibitory concentration (IC50) on ULK1 kinase was no more than 10 nM; in test [1] it was no more than 100 nM.

Regarding `CC/C(Nc1cnn(C2CCN(C(C)C)CC2)c1)=C1/C(=O)Nc2ccc(C(=O)NCC3CC(F)(F)C3)cc21` [Example 30], the IC50 is no more than 10 nM at ULK1 kinase and no more than 100 nM in test [1].

`CC/C(Nc1cnn(C2CCN(C(C)C)CC2)c1)=C1/C(=O)Nc2ccc(C(=O)NCCC(F)(F)F)cc21` [Example 31]: the IC50 on ULK1 kinase is no more than 10 nM; in test [1], no more than 100 nM.

As to `CC/C(Nc1cnn(C2CCN(C3CCOCC3)CC2)c1)=C1/C(=O)Nc2ccc(C(=O)NCC(C)C)cc21` [Example 37], the figures for the IC50 (at ULK1 kinase; in test [1]) were no more than 10 nM and no more than 100 nM, respectively.

Take `CC/C(Nc1cnn(C2CCN(C(C)C)CC2)c1)=C1/C(=O)Nc2ccc(C(=O)NCC3CC3)cc21` [Example 42]: the IC50 was no more than 10 nM at ULK1 kinase and no more than 100 nM in test [1].

Consider `CC/C(Nc1cnn(C2CCN(C(C)C)CC2)c1)=C1/C(=O)Nc2ccc(C(=O)NCC3CCCC3)cc21` [Example 44], for which the IC50 on ULK1 kinase is no more than 10 nM; in test [1], no more than 100 nM.

Take `CC/C(Nc1ccc(N2CCN(C(C)C)CC2)cc1)=C1/C(=O)Nc2ccc(C(=O)NC[C@H]3CCCO3)cc21` [Example 47]: the results for the IC50 (on ULK1 kinase; in test [1]) were no more than 10 nM and no more than 100 nM, respectively.

As for `CC/C(Nc1cnn(C2CCN(C)CC2)c1)=C1/C(=O)Nc2ccc(C(=O)NC[C@H]3CCCO3)cc21` [Example 51], the figures for the IC50 (at ULK1 kinase; in test [1]) were no more than 10 nM and no more than 100 nM, respectively.

Regarding `CC/C(Nc1cnn(C2CCNCC2)c1)=C1/C(=O)Nc2ccc(C(=O)NC[C@H]3CCCO3)cc21` [Example 52], the IC50 on ULK1 kinase is no more than 10 nM; in test [1], no more than 100 nM.

Regarding `CC/C(Nc1cnn(C2CC3CCC(C2)N3C)c1)=C1/C(=O)Nc2ccc(C(=O)NC[C@H]3CCCO3)cc21` (stereo partly shown) [Example 53], the values for the IC50 (at ULK1 kinase; in test [1]) were no more than 10 nM and no more than 100 nM, respectively.

In the case of `CC/C(Nc1cnn(C2CN(C)C2)c1)=C1/C(=O)Nc2ccc(C(=O)NC[C@H]3CCCO3)cc21` [Example 54], the figures for the IC50 (on ULK1 kinase; in test [1]) were no more than 10 nM and no more than 100 nM, respectively.

`CC/C(Nc1cnn(C)c1)=C1/C(=O)Nc2ccc(C(=O)NC[C@H]3CCCO3)cc21` [Example 55]: the IC50 on ULK1 kinase was 10 to 100 nM; in test [1], no more than 100 nM.

Regarding `CC/C(Nc1cnn(C2CCN(C(C)C)CC2)c1)=C1/C(=O)Nc2ccc(C(=O)NC[C@@H](C)OC)cc21` [Example 58], the IC50 on ULK1 kinase was 10 to 100 nM; in test [1], no more than 100 nM.

Take `CC/C(Nc1ccc(N2CC3CC(C2)N3C)cc1)=C1/C(=O)Nc2ccc(C(=O)NCC(F)(F)F)cc21` [Example 60]: the IC50 at ULK1 kinase is no more than 10 nM; in test [1], no more than 100 nM.

As for `CC/C(Nc1ccc(N2C[C@H]3CN(C)C[C@H]3C2)cc1)=C1/C(=O)Nc2ccc(C(=O)NCC(F)(F)F)cc21` [Example 61], the IC50 at ULK1 kinase is no more than 10 nM; in test [1], no more than 100 nM.

As for `CC/C(Nc1ccc(N2CC3(CN(C)C3)C2)cc1)=C1/C(=O)Nc2ccc(C(=O)NCC(F)(F)F)cc21` [Example 62], the IC50 on ULK1 kinase is no more than 10 nM; in test [1], no more than 100 nM.

Turning to `CC/C(Nc1ccc(N2CCN(C(C)C)CC2)cn1)=C1/C(=O)Nc2ccc(C(=O)NC[C@H]3CCCO3)cc21` [Example 93], the IC50 was no more than 10 nM at ULK1 kinase and no more than 100 nM in test [1].

Take `CC/C(Nc1cnc(N2CCN(C(C)C)CC2)cn1)=C1/C(=O)Nc2ccc(C(=O)NCC(F)(F)F)cc21` [Example 94]: the IC50 at ULK1 kinase is 10 to 100 nM; in test [1], no more than 100 nM.

Take `CC/C(Nc1cnn(C(C)C)c1)=C1/C(=O)Nc2ccc(C(=O)NC[C@H]3CCCO3)cc21` [Example 95]: the IC50 on ULK1 kinase was no more than 10 nM; in test [1] it was no more than 100 nM.

For the compound `CC/C(Nc1cnn(C2CCN(C(C)C)CC2)c1)=C1/C(=O)Nc2ccc(C(=O)NCCOC)cc21` [Example 98], the IC50 was no more than 10 nM at ULK1 kinase and no more than 100 nM in test [1].

In the case of `CC/C(Nc1ccc(N2CCN(C(C)C)CC2)cc1)=C1/C(=O)Nc2cc(F)c(C(=O)NCC(F)(F)F)cc21` [Example 100], the IC50 on ULK1 kinase was 100 to 500 nM; in test [1], 100 to 300 nM.

As to `C/C(Nc1cnn(C(C)C)c1)=C1/C(=O)Nc2ccc(C(=O)NCC(F)(F)F)cc21` [Example 101], the values for the IC50 (at ULK1 kinase; in test [1]) were no more than 10 nM and no more than 100 nM, respectively.

With `CC/C(Nc1cnn(CCOC)c1)=C1/C(=O)Nc2ccc(C(=O)NCC(F)(F)F)cc21` [Example 102], the IC50 is 10 to 100 nM on ULK1 kinase and no more than 100 nM in test [1].

Take `CC/C(Nc1cnn(CCN(C)C)c1)=C1/C(=O)Nc2ccc(C(=O)NCC(F)(F)F)cc21` [Example 103]: the IC50 on ULK1 kinase was no more than 10 nM; in test [1], no more than 100 nM.
